Measurements taken from paper PMC3286537 (Purinergic Signalling, 2011).
Where a chain is given by its changes, count along the chain named. Like-named read-outs stand apart in the source and are kept apart here.

What was measured:
[1] = test system: A2BR mutant C167^EL2 to serine; details: C167^EL2 mutated to serine; cited from earlier work
[2] = target: T1, human adenosine A2BR mutant C167S^EL2 (Homo sapiens, UniProt P29275, C167S); test: Liquid yeast growth assay, mutant C167S
T1 sequence (P29275 1-332 C167S): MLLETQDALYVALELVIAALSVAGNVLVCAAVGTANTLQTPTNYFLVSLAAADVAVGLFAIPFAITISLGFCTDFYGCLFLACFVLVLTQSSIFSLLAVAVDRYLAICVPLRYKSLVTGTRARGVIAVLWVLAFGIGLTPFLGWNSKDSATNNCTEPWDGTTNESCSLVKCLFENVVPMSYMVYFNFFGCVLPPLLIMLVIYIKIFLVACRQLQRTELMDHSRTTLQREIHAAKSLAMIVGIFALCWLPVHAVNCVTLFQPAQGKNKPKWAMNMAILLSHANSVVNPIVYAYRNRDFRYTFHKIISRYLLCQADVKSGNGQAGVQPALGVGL

[3] = target: T2, human adenosine A2BR mutant Y202S^5.58 (Homo sapiens, UniProt P29275, Y202S); test: Liquid yeast growth assay, mutant Y202S
T2 sequence (P29275 1-332 Y202S): T1 sequence (P29275 1-332 C167S) with S167C, Y202S

hA2BR [4] = target: T3, hA2BR (Homo sapiens, UniProt P29275); details: CHO cell membranes expressing the hA2BR; cited from earlier work
T3 sequence (P29275 1-332): T1 sequence (P29275 1-332 C167S) with S167C

hA2BR [5] = target: T3, hA2BR; test: Saturation binding on whole yeast cells expressing the hA2BR; details: read-out: K D, yeast
[6] = target: T2, human adenosine A2BR mutant Y202S^5.58; test: Solid yeast growth assay, mutant Y202S; type: cell-based; details: inverse agonist response
[7] = test system: other 11 mutant adenosine A2BRs; test: Solid yeast growth assay, the other 11 mutant receptors; type: cell-based, human; details: 10 μM ZM241385

N#Cc1c(N)nc(SCC(N)=O)c(C#N)c1-c1ccc(OCC2CC2)cc1 [BAY 60-6583, 2-[6-amino-3,5-dicyano-4-[4-(cyclopropylmethoxy)phenyl]pyridin-2-ylsulfanyl]acetamide]
fold increase in potency [1]: 2.5 fold | fold increase in potency compared with wild type [2]: 2 fold | fold increase in potency compared with wild type [3]: 10 fold

CCCn1c(=O)[nH]c2nc(-c3ccc(S(=O)(=O)N4CCN(c5ccc(Cl)cc5)CC4)cc3)[nH]c2c1=O [[^3H]PSB-603]
Kd (hA2BR [4]): 0.4 ± 0.19 nM | Kd (hA2BR [5]): 0.81 ± 0.02 nM

Nc1nc(NCCc2ccc(O)cc2)nc2nc(-c3ccco3)nn12 [ZM241385, 4-{2-[7-amino-2-(2-furyl)[1,2,4]triazolo-[2,3-a][1,3,5]triazin-5-yl-amino]ethyl}phenol]
effect on constitutive activity [6]: could be reduced to wild-type levels | effect on constitutive activity [7]: could be fully suppressed
